Test results: patent US20250345295A1, “LMK235 COMPOSITIONS AND METHODS” (UNM Rainforest Innovations, priority 2024, published 2025)

Test system: HDAC5 protein
Assay: Western blot of TG HDAC5 protein
Type: in vivo, mouse
Conditions: for TG HDAC5 protein levels: LMK235 treatment
Method: Mice were euthanized with pentobarbital (FatalPlus, 480 mg/kg) and both ipsilateral and contralateral TG were removed. TG were washed immediately in PBS and stored at −80° C. Protein from TG tissue was extracted following homogenization using a pestle and 500 μL of 1× RIPA buffer (Thermo Fisher Scientific, Inc., Waltham, MA, Cat #89,900). Samples were put on a rocking shaker for two hours and then centrifuged, and the supernatant removed to a new tube. Sample was assayed for total protein (Bradford, Thermo Fisher Scientific, Inc., Waltham, MA). Samples were then prepared for electrophoresis by mixing with 2× sample buffer and boiling for five minutes at 100° C. for denaturation.
Proteins were loaded on a 12% Tris-Glycine polyacrylamide gradient gel (Bio-Rad Laboratories, Inc., Hercules, CA) and transferred to a PVDF membrane (MilliporeSigma, Burlington, MA). Membrane was blocked for an hour with 5% nonfat milk in TBST buffer at room temperature and incubated at 4° C. with anti-HDAC5 antibody overnight (Abcam, Cambridge, UK, #ab55403, #ab2772, #ab170935). The membrane was subsequently washed with TBST and then incubated with anti-rabbit secondary with HRP for one hour at room temperature (Abcam ab6721, diluted 1:1000 in TBST). The washing was repeated and then the blot developed with chemiluminescent substrate (Thermo Fisher Scientific, Inc., Waltham, MA Cat #32,106). The blot was then imaged using a Li-Cor Odyssey FC imaging system. Signal intensity was normalized to actin (Abcam ab8227, 1:2000) or tubulin (Abcam #ab10287), which was used as a loading control. Signal intensity was analyzed using ImageJ for comparisons.

Cc1cc(C)cc(C(=O)NOCCCCCC(=O)NO)c1 [LMK235, N-[[6-(Hydroxyamino)-6-oxohexyl]oxy]-3,5-dimethyl-benzamide]
TG HDAC protein levels vs untreated FRICT-ION mice (LMK235-treated FRICT-ION mice, males and females): significantly lower | TG HDAC5 protein levels (female FRICT-ION mice): to naïve levels | TG HDAC5 protein levels (male FRICT-ION mice): below naïve levels
